Measured values published in PMC6160541 (Frontiers in Chemistry, 2018).

Columns and labels:
PC3 = assay: MTT cytotoxicity assay, PC3; assay type: cell-based, human; conditions: 48 h
Description: (§1) We evaluated the cytotoxicity of 1c-6c, 1d-7d and of the positive control 1a-5a against a panel of human cancer cells using MTT (3-(4,5-dimethylthiazol-2-yl)-2,5-diphenyltetrazolium bromide) assay. The IC50 values were calculated based on three parallel experiments.
(§2) Cisplatin and oxaliplatin were purchased from Yurui Chemical Co. Ltd. (Shanghai, China). All of the other chemicals were obtained from commercial suppliers, such as Alfa […]
(§3) IonSpec QFT mass spectrometer with ESI ionization. 3-(4,5-dimethylthiazol-2-yl) […]
(§4) Phosphate-buffered saline (PBS) contains 137 mM
(§5) NaCl, 2.7 mM KCl, 10 mM Na2HPO4 and 2 mM KH2PO4. Fetal bovine serum (FBS), 0.25% trypsin/EDTA solution, and penicillin-streptomycin solution were purchased from […]
(§6) Invitrogen (Grand Island, NY, USA). […]
(§7) HeLa (cervical carcinoma cell line), MCF-7 (breast gland adenocarcinoma), LNCaP and PC3 (prostatic cancer), HepG-2 (hepatocellular carcinoma), A549 and A549R (lung carcinoma) were used for the MTT […]
(§8) In Vitro Cellular Cytotoxicity Assays
(§9) Cells seeded in 96-well plates were incubated in a 5% CO2 atmosphere in 100 µL of complete medium at 37 ℃ for 24 h. Then, 100 µL of freshly prepared culture medium containing drugs at different concentrations was added and incubated for another 48 h.
(§10) MTT (5 mg/mL, 20 µL) was added and incubated for 3 h. Finally, the medium was removed, and DMSO (150 µL) was added. The absorbance was measured at 570 nm using a Bio-Rad 680 microplate reader. The IC50 values were calculated using GraphPad […]
(§11) Prism software. […]

A549R = assay: MTT cytotoxicity assay, A549R (cisplatin-resistant); assay type: cell-based, human; conditions: for IC50: MTT, 48 h
Description: as §1, §2, §3, §4, §5, §6, §7, §8, §9, §10, §11

HeLa = assay: MTT cytotoxicity assay, HeLa; assay type: cell-based, human; conditions: 48 h
Description: as §1, §2, §3, §4, §5, §6, §7, §8, §9, §10, §11

LNCaP = assay: MTT cytotoxicity assay, LNCaP; assay type: cell-based, human; conditions: 48 h
Description: as §1, §2, §3, §4, §5, §6, §7, §8, §9, §10, §11

MCF-7 = assay: MTT cytotoxicity assay, MCF-7; assay type: cell-based, human; conditions: 48 h
Description: as §1, §2, §3, §4, §5, §6, §7, §8, §9, §10, §11

MCF-7 cells = assay: MTT cytotoxicity with GLUT1 inhibitors (EDG, phloretin) and OCT2 inhibitor (Ctd.) in MCF-7 cells; assay type: cell-based, human; conditions: MCF-7
Description: For cytotoxicity assays, the GLUT1 inhibitors EDG (1) and phloretin (2), the OCT2 inhibitor Ctd. (cimetidine) (3), and the mixture of EDG and Ctd.(4) were selected to undergo a similar procedure as antitumor activity in vitro. MCF-7 cells were seeded on a 96 well plate in 100 μL of RPMI and were incubated for 24 h at 37°C, and EDG-containing RPMI medium, phloretin-containing RPMI medium and Ctd.-containing RPMI medium were used to render the serial dilution of the concentrated solutions of the platinum compounds, and 100 μL/well was added (resulting in final inhibitor concentrations of 75 mM, 100 μM and 3 mM). The cytotoxicity profiles of the compounds were evaluated using MTT assay. […]
as §8, §9
MTT (5 mg/mL, 20 µL) was added and incubated for 3 h. Finally, the medium was removed, and DMSO (150 µL) was added. The absorbance was measured at 570 nm using a Bio-Rad 680 microplate reader. The IC50 values were calculated using GraphPad Prism software. Technical repetitions and independent experiments were based on three […]
For cytotoxicity assays using the GLUT1 inhibitor 4,6-O-ethylidene-α-D-glucose (EDG), phloretin and the OCT2 inhibitor Ctd., a similar procedure as described above was followed except that MCF-7 cells (3500 cells/well) were seeded on a 96 well plate in 100 µL of RPMI and incubated for 24 h at 37 °C. EDG, phloretin and Ctd. containing RPMI medium were used for serial dilution of the concentrated solutions of the platinum compounds, and 100 µL/well were added (resulting in final inhibitor concentrations of 75 mM, 100 µM and 3 mM, respectively). The cytotoxicity profiles of the compounds were evaluated using the MTT assay. […]

HepG-2 = assay: MTT cytotoxicity assay, HepG-2; assay type: cell-based, human; conditions: 48 h
Description: as §1, §2, §3, §4, §5, §6, §7, §8, §9, §10, §11

human cancer cells = assay: MTT cytotoxicity, summary over panel of human cancer cells; assay type: cell-based; conditions: range over A549R, LnCaP, PC3
Description: as §1
Scheme 9. Synthetic route of 38b. Conditions and reagents: (a) Ac2O and NaOAc; (b) TMSN3, BF3OEt2, and DCM; (c) MeONa and MeOH rt overnight; (d) BnBr, NaH, and DMF overnight; (e) […]
Preparation of 46b and 47b
Compounds 46b (38%) and 47b (45%) were prepared according to the procedure described for compounds 20b and 21b, respectively.
Compound 48b (45%) was prepared according to the procedure described for compound […]
In Vitro Cellular Cytotoxicity Assays […]
MTT (5 mg/mL, 20 µL) was added and incubated for 3 h. […] The absorbance was measured at 570 nm using a Bio-Rad 680 microplate reader. The IC50 values were calculated using GraphPad Prism software. […]
For cytotoxicity assays using the GLUT1 inhibitor 4,6-O-ethylidene-α-D-glucose (EDG), phloretin and the OCT2 inhibitor Ctd., a similar procedure as described above was followed except that MCF-7 cells (3500 cells/well) were seeded on a 96 well plate in 100 µL of RPMI and incubated for 24 h at 37 °C. […] The cytotoxicity profiles of the compounds were evaluated using the MTT assay. […]

A549 = assay: MTT cytotoxicity assay, A549; assay type: cell-based, human; conditions: 48 h
Description: as §1, §2, §3, §4, §5, §6, §7, §8, §9, §10, §11

SMILES | IC50 (PC3) [µM] | IC50 (A549R) [µM] | IC50 (HeLa) [µM] | IC50 (LNCaP) [µM] | IC50 (MCF-7) [µM] | effect of EDG and phloretin on IC50 values (MCF-7 cells) | IC50 (HepG-2) [µM] | IC50 (human cancer cells) [µM] | IC50 (A549) [µM] | RF: Resistance factor = IC50(A549R)/IC50(A549) (A549R)
N.N.[Cl][Pt][Cl] [1a, cisplatin, reference compound] | 22.9 ± 1.45 | 35.8 ± 1.69 | 0.8 ± 0.93 | 23.8 ± 0.89 | 2.28 ± 0.56 | not greatly different | 3.94 ± 0.39 | 16.8 to 39.7 | 10.8 ± 1.98 | –
CC(=O)OC[C@H]1O[C@@H](O[C@H]2[C@H](OC(C)=O)[C@@H](OC(C)=O)[C@H](NC(=O)CCC(=O)[O][Pt-2]([NH3+])([NH3+])([OH])([Cl])[Cl])O[C@@H]2COC(C)=O)[C@H](OC(C)=O)[C@@H](OC(C)=O)[C@H]1OC(C)=O [1c] | > 100 | 4.26 ± 1.9 | 18.2 ± 1.01 | > 100 | 24.2 ± 1.44 | – | 11.6 ± 1.58 | – | 36.4 ± 1.39 | 0.12
N.N.[Cl-].[Cl-].[OH-].[OH-].[Pt+4] [2a, reference compound] | 61.4 ± 0.67 | 13.4 ± 2.57 | 11.4 ± 1.56 | 50.8 ± 0.79 | 27 ± 0.34 | – | 50 ± 1.79 | – | > 100 | –
CC(=O)OC[C@H]1O[C@@H](O[C@H]2[C@H](OC(C)=O)[C@@H](OC(C)=O)[C@H](NC(=O)CCC(=O)[O][Pt-2]34([OH])([NH2+][C@@H]5CCCC[C@H]5[NH2+]3)[O]C(=O)C(=O)[O]4)O[C@@H]2COC(C)=O)[C@H](OC(C)=O)[C@@H](OC(C)=O)[C@H]1OC(C)=O [2c] | > 100 | 8.37 ± 1.9 | 4.05 ± 0.87 | 4.7 ± 0.89 | 8.29 ± 1.87 | – | 59.3 ± 1.49 | – | 14.5 ± 1.47 | 0.58
O=C1[O][Pt]2([NH][C@@H]3CCCC[C@H]3[NH]2)[O]C1=O [3a, oxaliplatin, reference compound] | 39.7 ± 0.76 | 39.7 ± 0.69 | 3.96 ± 0.75 | 16.8 ± 0.34 | 5.22 ± 2.78 | not greatly different | 6.64 ± 1.79 | 16.8 to 39.7 | 10.1 ± 1.2 | 3.94
CC(=O)OC[C@H]1O[C@@H](NC(=O)CCC(=O)[O][Pt-2]([NH3+])([NH3+])([OH])([Cl])[Cl])[C@H](OC(C)=O)[C@@H](OC(C)=O)[C@@H]1O[C@H]1O[C@H](COC(C)=O)[C@@H](OC(C)=O)[C@H](OC(C)=O)[C@H]1OC(C)=O [3c] | 1.13 ± 0.45 | 14.6 ± 1.78 | 0.91 ± 0.54 | > 100 | 27.2 ± 1.56 | – | 3.27 ± 1.67 | – | 3.38 ± 1.49 | 4.33
N.N.O=C(CCC(=O)[O][Pt]([OH])([Cl])[Cl])NCCO[C@H]1O[C@H](CO)[C@@H](O)[C@H](O)[C@@H]1O [3d] | > 100 | > 100 | 3.01 ± 0.67 | > 100 | 45.1 ± 0.77 | – | 13.2 ± 1.38 | – | 1.9 ± 2.78 | –
NC1CCCCC1N.O=C1[O][Pt]([OH])([OH])[O]C1=O [4a, reference compound] | > 100 | 29.7 ± 0.64 | 15.8 ± 0.34 | 23 ± 0.89 | > 100 | – | > 100 | – | > 100 | –
CC(=O)OC[C@H]1O[C@@H](NC(=O)CCC(=O)[O][Pt-2]23([OH])([NH2+][C@@H]4CCCC[C@H]4[NH2+]2)[O]C(=O)C(=O)[O]3)[C@H](OC(C)=O)[C@@H](OC(C)=O)[C@@H]1O[C@H]1O[C@H](COC(C)=O)[C@@H](OC(C)=O)[C@H](OC(C)=O)[C@H]1OC(C)=O [4c] | 22.9 ± 0.78 | 25.2 ± 1.79 | > 100 | > 100 | 7.21 ± 0.78 | – | 10.7 ± 1.49 | – | 14.3 ± 1.48 | –
CC(=O)OC[C@H]1O[C@@H](NC(=O)CCC(=O)[O][Pt-2]23([OH])([NH2+][C@@H]4CCCC[C@H]4[NH2+]2)[O]C(=O)C(=O)[O]3)[C@H](OC(C)=O)[C@@H](OC(C)=O)[C@H]1OC(C)=O [5c] | 7.45 ± 0.56 | 74.1 ± 1.67 | 32.2 ± 0.34 | 22.1 ± 1.45 | 17.89 ± 0.12 | – | > 100 | – | 17.5 ± 0.89 | 4.24
O=C(CCC(=O)[O][Pt-2]12([OH])([NH2+][C@@H]3CCCC[C@H]3[NH2+]1)[O]C(=O)C(=O)[O]2)NCCCO[C@@H]1O[C@H](CO)[C@H](O)[C@H](O)[C@H]1O [5d] | 6.27 ± 1.45 | 5.67 ± 1.69 | 0.58 ± 0.78 | 12 ± 0.79 | 0.35 | – | 1.77 ± 1.39 | – | 2.29 ± 1.78 | –
CC(=O)OC[C@H]1O[C@H](NC(=O)CCC(=O)[O][Pt-2]23([OH])([NH2+][C@@H]4CCCC[C@H]4[NH2+]2)[O]C(=O)C(=O)[O]3)[C@@H](OC(C)=O)[C@@H](OC(C)=O)[C@@H]1OC(C)=O [6c] | 7.06 ± 0.56 | > 100 | 16.8 ± 0.45 | 20.1 ± 1.78 | 20.8 ± 0.45 | – | 50.9 ± 1.46 | – | 23.8 ± 0.78 | –
